US12600709B2, “Nonpeptide somatostatin type 5 receptor agonists and uses thereof” (Crinetics Pharmaceuticals, Inc., priority 2019, dated 2026)
Read-outs that look alike come from different tables or passages of the source.

Key:
[1] = target: T1, human somatostatin receptor subtype 2 (Homo sapiens, UniProt P30874); assay: cAMP assay for SST2R (inhibition of cAMP in CHO-K1 cells); assay type: cell-based; settings: Table B; inhibition of cAMP via human SST2 receptor; read-out: SST2 potency
T1 construct: expressed in transfected cells
T1 sequence (P30874 whole entry): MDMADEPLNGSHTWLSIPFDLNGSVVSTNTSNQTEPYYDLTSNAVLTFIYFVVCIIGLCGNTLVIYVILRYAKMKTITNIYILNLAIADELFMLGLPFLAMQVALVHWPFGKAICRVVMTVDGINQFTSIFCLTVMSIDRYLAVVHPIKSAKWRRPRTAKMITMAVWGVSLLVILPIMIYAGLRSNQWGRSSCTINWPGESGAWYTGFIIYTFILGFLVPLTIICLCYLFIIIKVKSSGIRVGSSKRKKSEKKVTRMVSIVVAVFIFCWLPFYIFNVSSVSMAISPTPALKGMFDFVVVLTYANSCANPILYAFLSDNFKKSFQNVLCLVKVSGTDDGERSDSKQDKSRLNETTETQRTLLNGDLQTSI
Procedure, shortened: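 Agonism read as decrease in NKH477 (1.6 μM)-stimulated cAMP: compounds applied 20 min, 37° C, with 0.2 mM IBMX, to CHO-K1 stably expressing human SSTR2. cAMP quantified in lysates by time-resolved fluorescence (HTRF kit, 1-24 h RT), standard-curve regression, then EC50.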

[2] = target: T2, human somatostatin receptor subtype 5 (Homo sapiens, UniProt P35346); assay: cAMP assay for SST5R (inhibition of cAMP in CHO-K1 cells); assay type: cell-based; settings: for EC50: inhibition of cAMP via human SST5 receptor, read-out: SST5 potency
T2 construct: expressed in transfected cells
T2 sequence (P35346 whole entry): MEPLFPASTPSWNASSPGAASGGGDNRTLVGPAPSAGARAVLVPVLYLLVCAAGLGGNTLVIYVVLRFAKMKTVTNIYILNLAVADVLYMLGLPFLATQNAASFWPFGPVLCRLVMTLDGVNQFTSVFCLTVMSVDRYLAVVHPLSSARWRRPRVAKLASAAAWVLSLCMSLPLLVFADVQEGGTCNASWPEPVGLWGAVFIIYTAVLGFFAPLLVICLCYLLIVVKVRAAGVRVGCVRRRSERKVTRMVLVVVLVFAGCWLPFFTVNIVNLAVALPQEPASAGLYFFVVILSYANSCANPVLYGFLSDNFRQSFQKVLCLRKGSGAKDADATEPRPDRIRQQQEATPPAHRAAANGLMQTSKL
Procedure, shortened: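 CHO-K1 cells stably expressing human SSTR5 were treated 20 min at 37 °C with compounds plus 1.6 μM NKH477 in HBSS, 0.5 mM HEPES pH 7.4, 0.1% BSA, 0.2 mM IBMX. Lysate cAMP measured by HTRF against a standard curve; EC50 from cAMP-versus-concentration plots.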

[3] = Table B, class symbols, SST5 receptor over SST2 receptor

Which results are given for Cc1cccc2[nH]c(-c3cncc(C(=O)N4CCCC4C4CC4)c3N3CC[C@](C)(N)C3)nc12 (stereo partly drawn) [2-43, (3S)-1-[3-(2-cyclopropylpyrrolidine-1-carbonyl)-5-(4-methyl-1H-1,3-benzodiazol-2-yl)pyridin-4-yl]-3-methylpyrrolidin-3-amine]?
EC50 [1]: 0.01 to 0.1 µM; EC50 ([2]; Table A): < 0.01 µM; Fold selectivity for SST5 vs SST2 [2, 3]: + (+=10 to 99); EC50 ([2]; Table B): < 0.01 µM

Which EC50 [1] does the source give for Cc1cc(C)cc(NC(=O)c2cncc(-c3cc(C)cc(C)c3)c2N2CCC(CN)C2)c1 (stereo not drawn) [4-(3-(aminomethyl)pyrrolidin-1-yl)-N,5-bis(3,5-dimethylphenyl)nicotinamide, reference compound] here?
Its EC50 is less than 0.01 µM.

And the EC50 ([2]; Table B)?
Its EC50 is less than 0.01 µM.

And the “Fold selectivity for SST5 vs SST2” value ([2]; Table B, numeric values for comparison compounds)?
Its value is 0.084.

For Cc1ncc(C(=O)N[C@@H](C)C2CC2)c(N2CC[C@](C)(N)C2)c1-c1ccc(F)c(F)c1 [1-288, 4-[(3S)-3-amino-3-methylpyrrolidin-1-yl]-N-[(1S)-1-cyclopropylethyl]-5-(3,4-difluorophenyl)-6-methylpyridine-3-carboxamide], which EC50 [1] is on record?
The EC50 was 0.1 to 1 µM.

What about the EC50 ([2]; Table A) of the same compound?
Its EC50 is less than 0.01 µM.

What about the “Fold selectivity for SST5 vs SST2” value [2, 3] of the same compound?
Its value is “+++ (+++=>500)”.

And the EC50 ([2]; Table B)?
The EC50 was less than 0.01 µM.

For N[C@H]1CCN(c2c(C(=O)NC34CC(F)(C3)C4)cnc(C(F)(F)F)c2-c2cc(F)cc(F)c2)C1 [1-216, 4-[(3S)-3-aminopyrrolidin-1-yl]-5-(3,5-difluorophenyl)-N-{3-fluorobicyclo[1.1.1]pentan-1-yl}-6-(trifluoromethyl)pyridine-3-carboxamide], which EC50 [1] is on record?
Its EC50 is greater than 1 µM.

And the EC50 ([2]; Table A)?
Its EC50 is less than 0.01 µM.

And the “Fold selectivity for SST5 vs SST2” value [2, 3]?
The value was “+++ (+++=>500)”.

And the EC50 ([2]; Table B)?
The EC50 was less than 0.01 µM.

For Cc1ncc(C(=O)NC2CCC(F)(F)CC2)c(N2CC[C@](C)(N)C2)c1-c1cc(F)cc(OC(F)F)c1 [1-174, 4-[(3S)-3-amino-3-methylpyrrolidin-1-yl]-N-(4,4-difluorocyclohexyl)-5-[3-(difluoromethoxy)-5-fluorophenyl]-6-methylpyridine-3-carboxamide], which EC50 [1] is on record?
The EC50 was 0.1 to 1 µM.

And the EC50 ([2]; Table A)?
The EC50 was less than 0.01 µM.

And the “Fold selectivity for SST5 vs SST2” value [2, 3]?
The value was “+++ (+++=>500)”.

And the EC50 ([2]; Table B)?
Its EC50 is less than 0.01 µM.

What does the source list for COc1ncc(C(=O)N[C@@H](C)C(F)(F)F)c(N2CC[C@](C)(N)C2)c1-c1ccc(F)c(F)c1 [1-259, 4-[(3S)-3-amino-3-methylpyrrolidin-1-yl]-5-(3,4-difluorophenyl)-6-methoxy-N-[(2S)-1,1,1-trifluoropropan-2-yl]pyridine-3-carboxamide]?
EC50 [1]: 0.01 to 0.1 µM; EC50 ([2]; Table A): < 0.01 µM; Fold selectivity for SST5 vs SST2 [2, 3]: +++ (+++=>500); EC50 ([2]; Table B): < 0.01 µM

Which results are given for COc1cc(C#N)cc(-c2c(C)ncc(C(=O)N[C@@H](C)C(F)(F)F)c2N2CC[C@](C)(N)C2)c1 [1-275, 4-[(3S)-3-amino-3-methylpyrrolidin-1-yl]-5-(3-cyano-5-methoxyphenyl)-6-methyl-N-[(2S)-1,1,1-trifluoropropan-2-yl]pyridine-3-carboxamide]?
EC50 [1]: 0.1 to 1 µM; EC50 ([2]; Table A): < 0.01 µM; Fold selectivity for SST5 vs SST2 [2, 3]: +++ (+++=>500); EC50 ([2]; Table B): < 0.01 µM

What does the source list for N#Cc1ncc(C(=O)NC23CC(C2)C3)c(N2CC[C@H](N)C2)c1-c1ccc(F)c(F)c1 [1-66, 4-[(3S)-3-aminopyrrolidin-1-yl]-N-{bicyclo[1.1.1]pentan-1-yl}-6-cyano-5-(3,4-difluorophenyl)pyridine-3-carboxamide]?
EC50 [1]: > 1 µM; EC50 ([2]; Table A): < 0.01 µM; Fold selectivity for SST5 vs SST2 [2, 3]: +++ (+++=>500); EC50 ([2]; Table B): < 0.01 µM

Which results are given for COc1ncc(C(=O)N[C@@H](C)C2CC2)c(N2CC[C@H](N)C2)c1-c1cc(F)cc(Cl)c1 [1-282, 4-[(3S)-3-aminopyrrolidin-1-yl]-5-(3-chloro-5-fluorophenyl)-N-[(1S)-1-cyclopropylethyl]-6-methoxypyridine-3-carboxamide]?
EC50 [1]: 0.1 to 1 µM; EC50 ([2]; Table A): < 0.01 µM; Fold selectivity for SST5 vs SST2 [2, 3]: +++ (+++=>500); EC50 ([2]; Table B): < 0.01 µM

Which results are given for COc1cc(-c2c(C#N)ncc(C(=O)NC3CCCCC3)c2N2CC[C@](C)(N)C2)ccn1 [1-252, 4-[(3S)-3-amino-3-methylpyrrolidin-1-yl]-2-cyano-N-cyclohexyl-2′-methoxy-[3,4′-bipyridine]-5-carboxamide]?
EC50 [1]: 0.1 to 1 µM; EC50 ([2]; Table A): < 0.01 µM; Fold selectivity for SST5 vs SST2 [2, 3]: +++ (+++=>500); EC50 ([2]; Table B): < 0.01 µM
